Where two headings read alike, the source gives them in different places.
Test: Solubility of the amide linking reagents in organic solvents
Assay type: physicochemical
Settings: for solubility: organic solvent or mixture, thermodynamic from solid
Protocol: All solubility determinations are carried out in a tared gas-tight 4 ml bottle with magnetic stirrer bar. The amide linking reagent (at least 5 mg) is weighed out and a certain amount of the solvent to be investigated is added. The mixture is stirred for 2-5 minutes. If undissolved solid is still present, solvent (50-100 μl) is additionally added, and the mixture is stirred again. As soon as a clear solution is present, the experiment is terminated.

[1] = solvent 9CH2Cl2:1CH3CN, read-out: solubility in 9CH2Cl2:1CH3CN
[2] = solvent CH2Cl2, read-out: solubility in CH2Cl2
[3] = solvent CH3CN, read-out: solubility in CH3CN
[4] = solvent DMF, read-out: solubility in DMF
[5] = solvent Hexane, read-out: solubility in Hexane
[6] = solvent THF, read-out: solubility in THF
[7] = solvent Toluene, read-out: solubility in Toluene

| Compound | solubility in 9CH2Cl2:1CH3CN (solvent 9CH2Cl2:1CH3CN) | solubility in CH2Cl2 (solvent CH2Cl2) | solubility in CH3CN (solvent CH3CN) | solubility in DMF (solvent DMF) | solubility in Hexane (solvent Hexane) | solubility in THF (solvent THF) | solubility in Toluene (solvent Toluene) | solubility [1] | solubility [2] | solubility [3] | solubility [4] | solubility [5] | solubility [6] | solubility [7] | solubility in the nonpolar solvents hexane and toluene compared with the BF4/PF6 analogue (hexane and toluene) |
| --- | --- | --- | --- | --- | --- | --- | --- | --- | --- | --- | --- | --- | --- | --- | --- |
| (Benzotriazol-1-yloxy)tris(dimethylamino)phosphonium tris(pentafluoroethyl)trifluorophosphate [BOP-FAP] | >800 mg/mL | >1040 mg/mL | >700 mg/mL | >1100 mg/mL | <1.2 mg/mL | >1200 mg/mL | <1.2 mg/mL | – | – | – | – | – | – | – | – |
| CN(C)C(Sc1cccc[n+]1[O-])=[N+](C)C.F[P-](F)(F)(F)(F)F [HOTT, S-(1-oxido-2-pyridyl)-N,N,N′,N′-tetramethylthiouronium hexafluorophosphate, reference compound] | – | – | – | – | – | – | – | 180 mg/mL | 59 mg/mL | 810 mg/mL | 690 mg/mL | < 1.2 mg/mL | < 1.2 mg/mL | < 1.2 mg/mL | – |
| 1-(Dimethylamino(dimethylammonium-1-yliden)methyl)-1H-azabenzo-[d][1,2,3]triazole 3-oxide tris(pentafluoroethyl)trifluorophosphate [ATU-FAP] | 67 mg/mL | <1.2 mg/mL | >2000 mg/mL | >2000 mg/mL | <1.2 mg/mL | 670 mg/mL | <1.2 mg/mL | – | – | – | – | – | – | – | – |
| CCOC(=O)C(C#N)=NO[C+](N(C)C)N1CCOCC1.F[P-](F)(F)(F)(F)F [COMU, (1-cyano-2-ethoxy-2-oxoethylideneaminooxy)dimethylaminomorpholinocarbenium hexafluorophosphate, reference compound] | – | – | – | – | – | – | – | 294 mg/mL | 82 mg/mL | 565 mg/mL | 530 mg/mL | < 1.2 mg/mL | 4.1 mg/mL | 3.2 mg/mL | – |
| CN(C)C(n1n[n+]([O-])c2ccccc21)=[N+](C)C.F[P-](F)(F)(F)(F)F [HBTU, 1-(dimethylamino(dimethylamonium-1-ylidene)methyl)-1H-benzo[d][1,2,3]triazole 3-oxide hexafluorophosphate, reference compound] | <2.8 mg/mL | <1.1 mg/mL | 124 mg/mL | 200 mg/mL | <1.2 mg/mL | <3.6 mg/mL | <1.2 mg/mL | – | – | – | – | – | – | – | – |
| O-Pentafluorophenyl-N,N,N′,N′-tetramethyluronium tris(pentafluoroethyl)trifluorophosphate [PfTU-FAP] | >2000 mg/mL | 1000 mg/mL | >2000 mg/mL | >2000 mg/mL | <1.2 mg/mL | 1000 mg/mL | <1.2 mg/mL | – | – | – | – | – | – | – | – |
| [O-][n+]1nn(C(N2CCCC2)=[N+]2CCCC2)c2ccccc21 [BPyU-FAP, 1-(Pyrrolidino(pyrrolidinium-1-ylidene)methyl)-1H-benzo[d]-1,2,3-triazole 3-oxide tris(pentafluoroethyl)trifluorophosphate] | – | – | – | – | – | – | – | 190 mg/mL | 57 mg/mL | > 1020 mg/mL | > 1100 mg/mL | < 1.2 mg/mL | 510 mg/mL | < 1.2 mg/mL | – |
| CN(C)C(On1nnc2ccccc2c1=O)=[N+](C)C.F[B-](F)(F)F [HDBTU, O-(3,4-dihydro-4-oxo-1,2,3-benzotriazin-3-yl)-N,N,N′,N′-tetramethyluronium tetrafluoroborate, reference compound] | – | – | – | – | – | – | – | 17 mg/mL | 3.75 mg/mL | 240 mg/mL | 250 mg/mL | < 1.2 mg/mL | < 3.3 mg/mL | < 1.2 mg/mL | – |
| O-(3,4-Dihydro-4-oxo-1,2,3-benzotriazin-3-yl)-N,N,N,N′-tetramethyluronium tris(pentafluoroethyl)trifluorophosphate [DBTU-FAP] | 480 mg/mL | >780 mg/mL | >860 mg/mL | >1125 mg/mL | <1.2 mg/mL | >780 mg/mL | <1.2 mg/mL | – | – | – | – | – | – | – | – |
| S-(1-Oxido-2-pyridyl)-N,N,N′,N′-tetramethylthiouronium tris(pentafluoroethyl)trifluorophosphate [OTT-FAP] | >2000 mg/mL | 690 mg/mL | >2000 mg/mL | >2000 mg/mL | <1.2 mg/mL | 1400 mg/mL | <1.2 mg/mL | – | – | – | – | – | – | – | – |
| CCOC(=O)/C(C#N)=N/OC(N1CCOCC1)=[N+](C)C [COMU-FAP, (1-Cyano-2-ethoxy-2-oxoethylideneaminooxy)dimethylaminomorpholinocarbenium tris(pentafluoroethyl)trifluorophosphate] | – | – | – | – | – | – | – | > 2000 mg/mL | 180 mg/mL | 905 mg/mL | > 1500 mg/mL | 2.1 mg/mL | 349 mg/mL | 4.5 mg/mL | solubility improvement |
| CN(C)C(Oc1c(F)c(F)c(F)c(F)c1F)=[N+](C)C.F[P-](F)(F)(F)(F)F [PfTU, O-pentafluorophenyl-N,N,N′,N′-tetramethyluronium hexafluorophosphate, reference compound] | 2.5 mg/mL | <1.2 mg/mL | 1000 mg/mL | 1000 mg/mL | <1.2 mg/mL | <1.2 mg/mL | <1.2 mg/mL | – | – | – | – | – | – | – | – |
| F[P-](F)(F)(F)(F)F.c1cnc2c(c1)nnn2O[P+](N1CCCC1)(N1CCCC1)N1CCCC1 [PyAOP, (7-azabenzotriazol-1-yloxy)tris(pyrrolidino)phosphonium hexafluorophosphate, reference compound] | – | – | – | – | – | – | – | 670 mg/mL | 1000 mg/mL | 1000 mg/mL | 670 mg/mL | < 1.2 mg/mL | 6 mg/mL | < 1.2 mg/mL | – |
| CN(C)[P+](On1nnc2ccccc21)(N(C)C)N(C)C.F[P-](F)(F)(F)(F)F [BOP, (benzotriazol-1-yloxy)tris(dimethylamino)phosphonium hexafluorophosphate, reference compound] | – | – | – | – | – | – | – | > 335 mg/mL | > 380 mg/mL | 510 mg/mL | 660 mg/mL | < 1.2 mg/mL | < 4.2 mg/mL | < 1.2 mg/mL | – |
| (Benzotriazol-1-yloxy)tris(pyrrolidino)phosphonium tris(pentafluoroethyl)trifluorophosphate [PyBOP-FAP] | >1500 mg/mL | >1650 mg/mL | >1550 mg/mL | >1550 mg/mL | <1.2 mg/mL | >1500 mg/mL | 5.0 mg/mL | – | – | – | – | – | – | – | – |
| F[P-](F)(F)(F)(F)F.[O-][n+]1nn(C(N2CCCC2)=[N+]2CCCC2)c2ccccc21 [HBPyU, 1-(pyrrolidino(pyrrolidinium-1-ylidene)methyl)-1H-benzo-[d][1,2,3]triazole 3-oxide hexafluorophosphate, reference compound] | – | – | – | – | – | – | – | 118 mg/mL | 68.3 mg/mL | 510 mg/mL | 540 mg/mL | < 1.2 mg/mL | < 3.3 mg/mL | < 1.2 mg/mL | – |
| 1-(Dimethylamino(dimethylammonium-1-ylidene)methyl)-1H-benzo[d]-1,2,3-triazole 3-oxide tris(pentafluoroethyl)trifluorophosphate [BTU-FAP] | 120 mg/mL | 6.9 mg/mL | >1040 mg/mL | >1200 mg/mL | <1.2 mg/mL | 364 mg/mL | <1.2 mg/mL | – | – | – | – | – | – | – | – |
